Earlier results on 5 molecules are cited in patent publication US12630850B2, “Enzymatic break down of chlorogenic acid in sunflower-containing products” (Chapman University, priority 2022, dated 2026).

Broadly, the pKa is the negative logarithm of the acid dissociation constant. The term Km denotes the substrate concentration at which the rate is half of its maximum.

For data set [1] the following is noted: Kabir et al., 2014; cited from earlier work.
For data set [2] the following is noted: Lai et al., 2009; cited from earlier work.
For data set [3] the following is noted: p-nitrophenyl acetate, between 20° C. and 40° C.; cited from earlier work.

In the case of `O=C(/C=C/c1ccc(O)c(O)c1)O[C@@H]1C[C@](O)(C(=O)O)C[C@@H](O)[C@H]1O` [CGA, Chlorogenic acid], the pKa in data set [1] is given as 3.6. `O=C(O)/C=C/c1ccc(O)c(O)c1` [caffeic acid]: the pKa in data set [1] is on record as 4.5. In the case of `O=C(O)[C@]1(O)C[C@@H](O)[C@@H](O)[C@H](O)C1` [quinic acid], in data set [1], the pKa is recorded as 3.4.

B1: L. johnsonii: CGA esterase from L. johnsonii (Lai et al., 2009) (protein, listed as Lactobacillus johnsonii)
chain: MATTITLERDGLQLVGTREEPFGEIYDMAIIFHGFTANRNTSLLKEIANSLRDENIASVRFDFNGHGDSDGKFENMTVLNEIEDANAILNYVKTDPHVRNIYLVGHSQGGVVASMLAGLYPDLIKKVVLLAPAATLKSDALEGNTQGVTYNPDHIPDRLPFKDLTLGFYLRIAQQLPIYEVSAQFTKPVCLIHGTDDTWSPNASKKYDQIYQNSTLHLIEGADHCFSDSYQKNAVNLTTDFLQNNNAF
Consider B1, for which the Km in data set [2] was 53 µM.

B2: L. gasseri: CGA esterase from the bacterium L. gasseri (Fritsch et al., 2017) (protein, listed as Lactobacillus gasseri)
chain: MKLKKKKVGIYMATITIERDGLNLVGTREEPFGEIYDMAIIFHGFTANRNTPLLKEIADELRDENIASVRFDFNGHGDSDGKFENMTVLNEIEDANAILNYVKTDPHVRNIYLVGHSQGGVVASMLAGLYPDIIKKVVLLAPAATLKTDALNGSTQGVKYNPDHIPDRLPFKDLTLGFYLRIAQQLPIYEVSVHFTRPVCLIHGANDTWSPDASKKYDQVYENSTLHLVEGADHSFTDTYQKTAADLTAEFLQDNNTF
As for B2, in data set [3], the Temperature-dependence of activity result is “very weak temperature-dependence”.
